Patent US10179770B2, “Quinolines derivatives as novel anticancer agents” (GENOSCIENCE PHARMA, priority 2013, dated 2019)

Experiments:
Assay in all cases: CellTiter-Glo cell viability assay (example 57)
Assay type in all cases: cell-based
[1] = test system: LNCaP; conditions: Homo sapiens; LNCaP (Prostate); Cell Titer-Glo; 72 h
Method: (§1) The human breast cancer cell line SkBr3 and the human metastatic prostate carcinoma cell line LnCAP were cultured in Dulbecco's modified Eagle's medium (DMEM) supplemented with 10% fetal bovine serum (FBS) and 0.1% sodium pyruvate. The human myelocytic cell line U937 and NB4 were maintained in RPMI medium 1640 1× (Gibco 21875-034) supplemented with 10 % Fetal Bovine Serum (FBS, Eurobio S39130-0808) Kasumi and SKM-1 were maintained in RPMI medium 1640 1× (Gibco 21875-034) supplemented with 20 % Fetal Bovine Serum (FBS, Eurobio S39130-0808), HL60 was maintained in Iscove's modified Dulbecco's medium 1× (IMDM, Gibco 21890) supplemented with 20% Fetal Bovine Serum (FBS, Eurobio S39130-0808), cell line was maintained in MEM alpha medium (Gibco 22561-021) supplemented with 10% FBS at 37° C. with 5% CO2. Cell outgrowth was measured using the CellTiter-Glo luminescent cell viability assay as described by the manufacturer (Promega, Ref G7571 Madison, Wis., USA) using a FLUOstar optima luminometer (BMG Labtech, Ortenberg, Germany).
(§2) Briefly, for adherent cells, 10^4 cells were plated onto 96-well plates (white with clear bottom (3610, Corning Costar) in 100 μL of media per well and were allowed to grow overnight before the assay. For cells growing in suspension, 10^4 cells were plated onto 96-well plates immediately before the assay. […] Vehicle (DMSO) was used as a control, and all compounds were tested in a constant percentage of DMSO (1%). After addition of 50 μL of CellTiter GLO, luminescence was measured using a Centro luminometer (Berthold). EC50 values were determined as the dose of compound required to reduce luminescent values to 50% of the signal obtained for untreated cell cultures. All experiments were done in duplicate and repeated two independent times.

[2] = test system: SkBr3; conditions: Homo sapiens, SK-BR-3; SkBr3 (Breast); Cell Titer-Glo; 72 h
Method: as §1, §2

[3] = test system: Kasumi-1; conditions: Homo sapiens; Kasumi-1 (Leukemia); Cell Titer-Glo; 72 h
Method: as §1, §2

[4] = test system: NB4; conditions: Homo sapiens, NB-4; NB4 (Leukemia); Cell Titer-Glo; 72 h
Method: as §1, §2

[5] = test system: HL60; conditions: Homo sapiens, HL-60; HL60 (Leukemia); Cell Titer-Glo; 72 h
Method: as §1, §2

[6] = test system: U937; conditions: Homo sapiens, U-937; U937 (Leukemia); Cell Titer-Glo; 72 h
Method: as §1, §2

[7] = test system: SKM-1; conditions: Homo sapiens; SKM-1 (Leukemia); Cell Titer-Glo; 72 h
Method: as §1, §2

## CCN(CC)C1CCN(C(C)c2cc(-c3ccccc3)nc3ccccc23)CC1.Cl.Cl (stereo not shown) [XIX-3, 2-phenyl-4-{1-[4-(N,N-diethylamino)piperidin-1-yl]-eth-1-yl}quinoline dihydrochloride]
[1]
  EC50: 25 µM
[2]
  EC50: 20 µM
[3]
  EC50: 30 µM
[4]
  EC50: 37 µM
[5]
  EC50: 40 µM
[6]
  EC50: 35 µM
[7]
  EC50: 30 µM
